What all share (format): biochemical
The target in one assay is T1, JAK3 (Homo sapiens, UniProt P52333).
T1 construct: All four purified enzymes contain only the catalytic domain; His (N); purchased Carna Biosciences, Inc; host or cells: baculovirus expression system
Briefly: JAK kinase assay (HTRF, phosphorylation of synthetic peptide), JAK3. To be noted: catalytic domain, ATP at Km (2 μM); read-out: JAK3 kinase inhibitory activity (EC50). In general terms: TR-FRET usually uses a lanthanide donor and a delayed reading to cut background.

In the next assay the target is T2, TYK2 (Homo sapiens, UniProt P29597).
T2 construct: JAK1 (aa 850-1154) and TYK2 (aa 871-1187) are expressed with an N-terminally fused GST-tag; GST (N); purchased Carna Biosciences, Inc; host or cells: baculovirus expression system
T2 sequence (P29597 871-1187): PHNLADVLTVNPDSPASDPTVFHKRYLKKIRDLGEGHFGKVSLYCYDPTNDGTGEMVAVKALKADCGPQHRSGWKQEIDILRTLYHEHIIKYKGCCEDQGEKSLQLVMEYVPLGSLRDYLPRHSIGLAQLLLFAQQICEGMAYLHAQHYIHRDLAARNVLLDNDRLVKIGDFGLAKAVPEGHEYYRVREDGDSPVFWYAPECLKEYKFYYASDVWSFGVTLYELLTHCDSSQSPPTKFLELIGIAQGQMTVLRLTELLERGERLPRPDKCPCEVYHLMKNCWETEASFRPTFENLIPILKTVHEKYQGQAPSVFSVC
Briefly: JAK kinase assay (HTRF, phosphorylation of synthetic peptide), TYK2. To be noted: catalytic domain, ATP at Km (13 μM); read-out: TYK2 kinase inhibitory activity (EC50). The gist of the method:
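1 µM biotinylated TK peptide at Km ATP in pH 7.0 Hepes, 20-30 min RT. EDTA stop; overnight streptavidin-XL665/cryptate HTRF read.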

For another assay, the target named is T3, JAK2 (Homo sapiens, UniProt O60674).
T3 construct: All four purified enzymes contain only the catalytic domain; His (N); purchased Carna Biosciences, Inc; host or cells: baculovirus expression system
T3 sequence (O60674 849-1124 limits assumed): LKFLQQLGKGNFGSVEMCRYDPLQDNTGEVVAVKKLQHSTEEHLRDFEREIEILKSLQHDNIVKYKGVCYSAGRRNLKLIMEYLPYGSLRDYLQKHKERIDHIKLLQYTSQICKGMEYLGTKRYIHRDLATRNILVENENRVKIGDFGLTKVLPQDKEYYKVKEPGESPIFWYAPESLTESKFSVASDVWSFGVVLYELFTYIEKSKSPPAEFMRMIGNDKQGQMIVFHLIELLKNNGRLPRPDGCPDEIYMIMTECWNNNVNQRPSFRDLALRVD
Briefly: JAK kinase assay (HTRF, phosphorylation of synthetic peptide), JAK2. To be noted: catalytic domain, ATP at Km (4 μM); read-out: JAK2 kinase inhibitory activity (EC50). The essentials: (§1)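 Catalytic-domain human JAK1 (GST-tagged, aa 850-1154) or His-tagged JAK2, baculovirus-expressed, phosphorylated 1 µM biotinylated TK peptide at Km ATP (JAK1 7 µM, 10 mM MgCl2, 50 nM SEB; JAK2 4 µM, 5 mM MgCl2) in pH 7.0 Hepes, 20-30 min RT. EDTA stop; overnight streptavidin-XL665/cryptate HTRF read.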

Another assay has as its target T4, JAK1 (Homo sapiens, UniProt P23458).
T4 construct: JAK1 (aa 850-1154) and TYK2 (aa 871-1187) are expressed with an N-terminally fused GST-tag; GST (N); purchased Carna Biosciences, Inc; host or cells: baculovirus expression system
Briefly: JAK kinase assay (HTRF, phosphorylation of synthetic peptide), JAK1. The conditions noted are these: catalytic domain, ATP at Km (7 μM); read-out: JAK1 kinase inhibitory activity (EC50). The essentials: as §1

Structures are written as SMILES.

T4 sequence (P23458 850-1154): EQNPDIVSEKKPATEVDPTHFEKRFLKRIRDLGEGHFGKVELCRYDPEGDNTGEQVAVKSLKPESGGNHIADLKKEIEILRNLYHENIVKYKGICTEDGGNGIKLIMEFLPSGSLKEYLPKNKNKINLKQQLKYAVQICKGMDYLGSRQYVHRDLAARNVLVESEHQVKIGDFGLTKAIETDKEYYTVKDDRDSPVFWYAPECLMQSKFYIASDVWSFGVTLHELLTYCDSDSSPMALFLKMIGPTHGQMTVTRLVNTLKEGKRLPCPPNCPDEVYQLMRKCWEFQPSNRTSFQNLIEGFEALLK
T1 sequence (P52333 822-1111 limits assumed): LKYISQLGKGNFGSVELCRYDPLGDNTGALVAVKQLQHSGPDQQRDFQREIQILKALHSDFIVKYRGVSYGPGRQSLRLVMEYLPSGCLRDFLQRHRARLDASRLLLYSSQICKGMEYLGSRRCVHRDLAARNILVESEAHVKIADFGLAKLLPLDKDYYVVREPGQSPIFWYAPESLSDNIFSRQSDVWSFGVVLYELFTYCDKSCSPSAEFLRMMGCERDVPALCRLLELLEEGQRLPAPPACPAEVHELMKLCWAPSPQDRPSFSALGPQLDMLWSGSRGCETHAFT

For orientation: EC50 means the concentration giving half of the maximal effect. On to `CC(O)CC(=O)N1CCC(CN(C)S(=O)(=O)N2CCN(c3ncnc4[nH]ccc34)CC23CC3)C1` (stereo not shown) [Example 124, N-[[1-(3-hydroxybutanoyl)pyrrolidin-3-yl]methyl]-N-methyl-5-(7H-pyrrolo[2,3-d]pyrimidin-4-yl)-5,8-diazaspiro[2.5]octane-8-sulfonamide], for which the EC50 on JAK3 is 100 to 500 nM; on TYK2 it was more than 500 nM; on JAK2, less than 100 nM; at JAK1 it was less than 100 nM.
Turning to `CCC(=O)N1CCC(CN(C)S(=O)(=O)N2CCN(c3ncnc4[nH]ccc34)CC23CC3)C1` (stereo not shown) [Example 125, N-methyl-N-[(1-propanoylpyrrolidin-3-yl)methyl]-5-(7H-pyrrolo[2,3-d]pyrimidin-4-yl)-5,8-diazaspiro[2.5]octane-8-sulfonamide], the 50% effective concentration (EC50) on JAK3 was 100 to 500 nM; at TYK2 it was more than 500 nM; on JAK2, less than 100 nM; at JAK1, less than 100 nM.
For the compound `CN(CC1CCN(C(=O)CCC#N)C1)S(=O)(=O)N1CCN(c2ncnc3[nH]ccc23)CC12CC2` (stereo not shown) [Example 126, N-[[1-(3-cyanopropanoyl)pyrrolidin-3-yl]methyl]-N-methyl-5-(7H-pyrrolo[2,3-d]pyrimidin-4-yl)-5,8-diazaspiro[2.5]octane-8-sulfonamide], the half-maximal effective concentration (EC50) was 100 to 500 nM at JAK3, more than 500 nM on TYK2, less than 100 nM on JAK2 and less than 100 nM at JAK1.
Consider `CN(CC1CCN(C(=O)C(O)CO)C1)S(=O)(=O)N1CCN(c2ncnc3[nH]ccc23)CC12CC2` (stereo not shown) [Example 127, N-[[1-(2,3-dihydroxypropanoyl)pyrrolidin-3-yl]methyl]-N-methyl-5-(7H-pyrrolo[2,3-d]pyrimidin-4-yl)-5,8-diazaspiro[2.5]octane-8-sulfonamide], for which the EC50 at JAK3 was 100 to 500 nM; at TYK2, more than 500 nM; at JAK2 it was less than 100 nM; on JAK1 it was less than 100 nM.
As for `CN(CC1CCN(C=O)C1)S(=O)(=O)N1CCN(c2ncnc3[nH]ccc23)CC12CC2` (stereo not shown) [Example 128, N-[(1-formylpyrrolidin-3-yl)methyl]-N-methyl-5-(7H-pyrrolo[2,3-d]pyrimidin-4-yl)-5,8-diazaspiro[2.5]octane-8-sulfonamide], the EC50 was less than 100 nM on JAK3, more than 500 nM at TYK2, less than 100 nM at JAK2 and less than 100 nM at JAK1.
In the case of `CN(C(=O)CC(F)(F)F)S(=O)(=O)N1CCN(c2ncnc3[nH]ccc23)CC12CC2` [Example 129, 3,3,3-trifluoro-N-methyl-N-[[5-(7H-pyrrolo[2,3-d]pyrimidin-4-yl)-5,8-diazaspiro[2.5]octan-8-yl]sulfonyl]propanamide], the half-maximal effective concentration (EC50) on JAK3 was 100 to 500 nM; at TYK2 it was 100 to 500 nM; at JAK2, less than 100 nM; on JAK1, less than 100 nM.
As for `CN(C(=O)C1CCC(F)(F)CC1)S(=O)(=O)N1CCN(c2ncnc3[nH]ccc23)CC12CC2` [Example 130, 4,4-difluoro-N-methyl-N-[[5-(7H-pyrrolo[2,3-d]pyrimidin-4-yl)-5,8-diazaspiro[2.5]octan-8-yl]sulfonyl]cyclohexanecarboxamide], the EC50 on JAK3 was less than 100 nM; on TYK2, 100 to 500 nM; at JAK2, less than 100 nM; on JAK1, less than 100 nM.
`CN(C(=O)CCC(F)(F)F)S(=O)(=O)N1CCN(c2ncnc3[nH]ccc23)CC12CC2` [Example 131, 4,4,4-trifluoro-N-methyl-N-[[5-(7H-pyrrolo[2,3-d]pyrimidin-4-yl)-5,8-diazaspiro[2.5]octan-8-yl]sulfonyl]butanamide]: the EC50 at JAK3 is 100 to 500 nM; at TYK2 it was less than 100 nM; at JAK2, less than 100 nM; at JAK1, less than 100 nM.
Consider `CN(C(=O)C1CCCC1)S(=O)(=O)N1CCN(c2ncnc3[nH]ccc23)CC12CC2` [Example 132, N-methyl-N-[[5-(7H-pyrrolo[2,3-d]pyrimidin-4-yl)-5,8-diazaspiro[2.5]octan-8-yl]sulfonyl]cyclopentanecarboxamide], for which the EC50 was 100 to 500 nM on JAK3, 100 to 500 nM on TYK2, less than 100 nM on JAK2 and less than 100 nM on JAK1.
Regarding `CN(C(=O)CC1CCCC1)S(=O)(=O)N1CCN(c2ncnc3[nH]ccc23)CC12CC2` [Example 133, 2-cyclopentyl-N-methyl-N-[[5-(7H-pyrrolo[2,3-d]pyrimidin-4-yl)-5,8-diazaspiro[2.5]octan-8-yl]sulfonyl]acetamide], the EC50 at JAK3 is 100 to 500 nM; at TYK2, 100 to 500 nM; at JAK2, less than 100 nM; at JAK1, less than 100 nM.
As to `CN(C(=O)CCC1CCCC1)S(=O)(=O)N1CCN(c2ncnc3[nH]ccc23)CC12CC2` [Example 134, 3-cyclopentyl-N-methyl-N-[[5-(7H-pyrrolo[2,3-d]pyrimidin-4-yl)-5,8-diazaspiro[2.5]octan-8-yl]sulfonyl]propanamide], the EC50 was more than 500 nM on JAK3, more than 500 nM at TYK2, 100 to 500 nM at JAK2 and less than 100 nM at JAK1.
As to `CN(C(=O)C1CCS(=O)(=O)C1)S(=O)(=O)N1CCN(c2ncnc3[nH]ccc23)CC12CC2` (stereo not shown) [Example 135, N-methyl-1,1-dioxo-N-[[5-(7H-pyrrolo[2,3-d]pyrimidin-4-yl)-5,8-diazaspiro[2.5]octan-8-yl]sulfonyl]thiolane-3-carboxamide], the EC50 at JAK3 was less than 100 nM; at TYK2 it was 100 to 500 nM; at JAK2, less than 100 nM; on JAK1, less than 100 nM.
On to `CN(C(=O)CC1CCS(=O)(=O)CC1)S(=O)(=O)N1CCN(c2ncnc3[nH]ccc23)CC12CC2` [Example 136, 2-(1,1-dioxothian-4-yl)-N-methyl-N-[[5-(7H-pyrrolo[2,3-d]pyrimidin-4-yl)-5,8-diazaspiro[2.5]octan-8-yl]sulfonyl]acetamide], for which the EC50 was 100 to 500 nM at JAK3, more than 500 nM on TYK2, less than 100 nM on JAK2 and less than 100 nM at JAK1.
For the compound `CN(C(=O)CCC1CCS(=O)(=O)C1)S(=O)(=O)N1CCN(c2ncnc3[nH]ccc23)CC12CC2` (stereo not shown) [Example 137, 3-(1,1-dioxothiolan-3-yl)-N-methyl-N-[[5-(7H-pyrrolo[2,3-d]pyrimidin-4-yl)-5,8-diazaspiro[2.5]octan-8-yl]sulfonyl]propanamide], the EC50 on JAK3 is 100 to 500 nM; on TYK2 it was more than 500 nM; at JAK2, less than 100 nM; on JAK1, less than 100 nM.
Take `CN(C(=O)CC1CCS(=O)(=O)C1)S(=O)(=O)N1CCN(c2ncnc3[nH]ccc23)CC12CC2` (stereo not shown) [Example 138, 2-(1,1-dioxothiolan-3-yl)-N-methyl-N-[[5-(7H-pyrrolo[2,3-d]pyrimidin-4-yl)-5,8-diazaspiro[2.5]octan-8-yl]sulfonyl]acetamide]: the concentration giving a half-maximal response (EC50) at JAK3 is 100 to 500 nM; at TYK2 it was more than 500 nM; on JAK2, less than 100 nM; on JAK1, less than 100 nM.
Turning to `CN(C(=O)C1CCS(=O)(=O)CC1)S(=O)(=O)N1CCN(c2ncnc3[nH]ccc23)CC12CC2` [Example 139, N-methyl-1,1-dioxo-N-[[5-(7H-pyrrolo[2,3-d]pyrimidin-4-yl)-5,8-diazaspiro[2.5]octan-8-yl]sulfonyl]thiane-4-carboxamide], the EC50 at JAK3, at TYK2, at JAK2 and on JAK1 was less than 100 nM each time.
Consider `CN(C(=O)C1CCCS(=O)(=O)C1)S(=O)(=O)N1CCN(c2ncnc3[nH]ccc23)CC12CC2` (stereo not shown) [Example 140, N-methyl-1,1-dioxo-N-[[5-(7H-pyrrolo[2,3-d]pyrimidin-4-yl)-5,8-diazaspiro[2.5]octan-8-yl]sulfonyl]thiane-3-carboxamide], for which the concentration giving a half-maximal response (EC50) on JAK3 is 100 to 500 nM; at TYK2 it was more than 500 nM; at JAK2, less than 100 nM; at JAK1 it was less than 100 nM.
As for `CN(C1CC1)S(=O)(=O)N1CCN(c2ncnc3[nH]ccc23)CC12CC2` [Example 141, N-cyclopropyl-N-methyl-5-(7H-pyrrolo[2,3-d]pyrimidin-4-yl)-5,8-diazaspiro[2.5]octane-8-sulfonamide], the concentration for a half-maximal effect (EC50) on JAK3 was 100 to 500 nM; at TYK2 it was 100 to 500 nM; on JAK2, less than 100 nM; at JAK1, less than 100 nM.
Turning to `N#CCCN(CC1CCCO1)S(=O)(=O)N1CCN(c2ncnc3[nH]ccc23)CC12CC2` (stereo not shown) [Example 142, N-(2-cyanoethyl)-5-(7H-pyrrolo[2,3-d]pyrimidin-4-yl)-N-(tetrahydrofuran-2-ylmethyl)-5,8-diazaspiro[2.5]octane-8-sulfonamide], the EC50 at JAK3 was less than 100 nM; at TYK2 it was 100 to 500 nM; at JAK2, less than 100 nM; at JAK1, less than 100 nM.

For the origin of these results see US9233964B2, “Sulfamide piperazine derivatives as protein tyrosine kinase inhibitors and pharmaceutical use therof” (LEO PHARMA A/S, priority 2011, dated 2016).
